Counter-ions that a name gives are not always drawn.
What was measured:
[1] = Solubility in pure water at 25° C. (Test Example 1)
[2] = disclosed in WO2006/069363A2; cited from earlier work
[3] = Storage stability at 25° C., 60% RH for 6 months; assay type: physicochemical

Compound	solubility ([1]; in water, 25° C., listed as Lorcaserin hydrochloride hemihydrate (the known)) [mg/mL]	solubility ([1]; pure water, 25 °C, water, thermodynamic from solid) [mg/mL]	hygroscopicity [2]	stability among crystalline Forms I, II and III [2]	purity and crystalline form after storage [3]
C[C@H]1CNCCc2ccc(Cl)cc21 [lorcaserin hydrochloride hemihydrate, (R)-8-chloro-1-methyl-2,3,4,5-tetrahydro-1H-3-benzazepine]	>200	> 200	poor hygroscopicity	the most stable form	
cocrystal of lorcaserin hydrochloride and benzoic acid [the cocrystal]					unchanged

Reference: patent publication US9981912B2, “Cocrystal of lorcaserin, preparation methods, pharmaceutical compositions and uses thereof” (priority 2014, dated 2018)
